Earlier results as cited in patent publication US20110028639A1, “ROOM TEMPERATURE VULCANIZABLE POLYMERS” (HONEYWELL INTERNATIONAL, INC., priority 2007, published 2011).

System: males rats

In the case of `CC(C)=NO` [acetone oxime], the tumors in rats is listed as “cause tumors”.
